Eight molecules from patent US10308644B2, “Heterocyclic compounds as immunomodulators” (Incyte Corporation, priority 2016, dated 2019) can be followed below.

Sequence of PD-1/PD-L1 (Q9NZQ7 19-238): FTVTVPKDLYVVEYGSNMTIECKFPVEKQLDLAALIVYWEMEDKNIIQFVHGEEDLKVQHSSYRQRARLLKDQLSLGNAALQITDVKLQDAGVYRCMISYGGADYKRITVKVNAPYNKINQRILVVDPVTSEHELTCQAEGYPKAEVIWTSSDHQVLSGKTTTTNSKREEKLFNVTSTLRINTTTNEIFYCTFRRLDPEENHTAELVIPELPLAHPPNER

This test concerns the target PD-1/PD-L1 (Homo sapiens (Human), UniProt Q9NZQ7). Put plainly: PD-1/PD-L1 Homogeneous Time-Resolved Fluorescence (HTRF) Binding Assay. To be noted: recombinant human PD-1 (3 nM) and PD-L1 (10 nM), 25° C., PBS pH 7.4. The method, then: Example A. PD-1/PD-L1 Homogeneous Time-Resolved Fluorescence (HTRF) Binding Assay
The assays were conducted in a standard black 384-well polystyrene plate with a final volume of 20 μL. Inhibitors were first serially diluted in DMSO and then added to the plate wells before the addition of other reaction components. The final concentration of DMSO in the assay was 1%. The assays were carried out at 25° C. in the PBS buffer (pH 7.4) with 0.05% Tween-20 and 0.1% BSA. Recombinant human PD-L1 protein (19-238) with a His-tag at the C-terminus was purchased from AcroBiosystems (PD1-H5229). Recombinant human PD-1 protein (25-167) with Fc tag at the C-terminus was also purchased from AcroBiosystems (PD1-H5257). PD-L1 and PD-1 proteins were diluted in the assay buffer and 10 μL was added to the plate well. Plates were centrifuged and proteins were preincubated with inhibitors for 40 minutes. The incubation was followed by the addition of 10 μL of HTRF detection buffer supplemented with Europium cryptate-labeled anti-human IgG (PerkinElmer-AD0212) specific for Fc and anti-His antibody conjugated to SureLight®-Allophycocyanin (APC, PerkinElmer-AD0059H). After centrifugation, the plate was incubated at 25° C. for 60 min. before reading on a PHERAstar FS plate reader (665 nm/620 nm ratio). Final concentrations in the assay were—3 nM PD1, 10 nM PD-L1, 1 nM europium anti-human IgG and 20 nM anti-His-Allophycocyanin. IC50 determination was performed by fitting the curve of percent control activity versus the log of the inhibitor concentration using the GraphPad Prism 5.0 software.
For the molecule `Cc1c(-c2nc3cc(CN4CC[C@@H](C(=O)O)C4)cc(C#N)c3o2)cccc1-c1cccc(-c2nc3c(s2)CN(C(=O)CN2CC[C@@H](O)C2)C3)c1C` [Example 111, (R)-1-((7-cyano-2-(3′-(5-(2-((R)-3-hydroxypyrrolidin-1-yl)acetyl)-5,6-dihydro-4H-pyrrolo[3,4-d]thiazol-2-yl)-2,2′-dimethylbiphenyl-3-yl)benzo[d]oxazol-5-yl)methyl)pyrrolidine-3-carboxylic acid], the IC50 (in general, the concentration needed to halve the response being measured) is at most 10 nM.

Regarding `Cc1c(Nc2nccc3cc(CN4CC[C@@H](O)C4)cnc23)cccc1-c1cccc(-c2nc3cc(CN4CC[C@H](C(=O)O)C4)cc(C#N)c3o2)c1C` [Example 28, (S)-1-((7-cyano-2-(3′-(3-(((R)-3-hydroxypyrrolidin-1-yl)methyl)-1,7-naphthyridin-8-ylamino)-2,2′-dimethylbiphenyl-3-yl)benzo[d]oxazol-5-yl)methyl)pyrrolidine-3-carboxylic acid], the IC50 was at most 10 nM.

With `Cc1c(NC(=O)c2nc3c(n2C)CCN(C(C)C)C3)cccc1-c1cccc(-c2nc3cc(CN4CC[C@H](C(=O)O)C4)cc(C#N)c3o2)c1C` [Example 38, (S)-1-((7-cyano-2-(3′-(5-isopropyl-1-methyl-4,5,6,7-tetrahydro-1H-imidazo[4,5-c]pyridine-2-carboxamido)-2,2′-dimethylbiphenyl-3-yl)benzo[d]oxazol-5-yl)methyl)pyrrolidine-3-carboxylic acid], the IC50 was at most 10 nM.

Regarding `Cc1c(-c2nc3cc(CN4CC[C@@H](O)C4)cc(C#N)c3o2)cccc1-c1cccc(NC(=O)c2nc3c(n2C)CCN(Cc2ccc(B(O)O)cc2)C3)c1Cl` [Example 240, (R)-4-((2-(2-chloro-3′-(7-cyano-5-((3-hydroxypyrrolidin-1-yl)methyl)benzo[d]oxazol-2-yl)-2′-methylbiphenyl-3-ylcarbamoyl)-1-methyl-6,7-dihydro-1H-imidazo[4,5-c]pyridin-5(4H)-yl)methyl)phenylboronic acid], the IC50 is at most 10 nM.

Turning to `Cc1c(-c2nc3c(o2)CN(C(=O)CN2CC[C@@H](O)C2)C3)cccc1-c1cccc(-c2nc3cc(CN4CC[C@@H](C(=O)O)C4)cc(C#N)c3o2)c1C` [Example 126, (R)-1-((7-cyano-2-(3′-(5-(2-((R)-3-hydroxypyrrolidin-1-yl)acetyl)-5,6-dihydro-4H-pyrrolo[3,4-d]oxazol-2-yl)-2,2′-dimethyl-[1,1′-biphenyl]-3-yl)benzo[d]oxazol-5-yl)methyl)pyrrolidine-3-carboxylic acid], the concentration for half-maximal inhibition (IC50) was at most 10 nM.

For the molecule `Cc1c(-c2nc3c(o2)CN(C(=O)CN2CC[C@H](C(=O)O)C2)C3)cccc1-c1cccc(-c2nc3cc(CN4CC[C@@H](O)C4)cc(C#N)c3o2)c1C` [Example 131, (S)-1-(2-(2-(3′-(7-cyano-5-(((R)-3-hydroxypyrrolidin-1-yl)methyl)benzo[d]oxazol-2-yl)-2,2′-dimethyl-[1,1′-biphenyl]-3-yl)-4,6-dihydro-5H-pyrrolo[3,4-d]oxazol-5-yl)-2-oxoethyl)pyrrolidine-3-carboxylic acid], the 50% inhibitory concentration (IC50) was at most 10 nM.

In the case of `Cc1c(-c2nc3cc(CN4CC[C@H](C(=O)O)C4)cc(C#N)c3o2)cccc1-c1cccc(-n2cc3c(n2)CCN(C)C3)c1Cl` [Example 54, (S)-1-((2-(2′-chloro-2-methyl-3′-(5-methyl-4,5,6,7-tetrahydro-2H-pyrazolo[4,3-c]pyridin-2-yl)biphenyl-3-yl)-7-cyanobenzo[d]oxazol-5-yl)methyl)pyrrolidine-3-carboxylic acid], the half-inhibitory concentration (IC50) was at most 10 nM.

On to `Cc1c(Nc2nccc3cc(CN4CC[C@@H](O)C4)cnc23)cccc1-c1cccc(-c2nc3cc(CN4CC[C@@H](C(=O)O)C4)cc(C#N)c3o2)c1C` [Example 24, (R)-1-((7-cyano-2-(3′-(3-(((R)-3-hydroxypyrrolidin-1-yl)methyl)-1,7-naphthyridin-8-ylamino)-2,2′-dimethylbiphenyl-3-yl)benzo[d]oxazol-5-yl)methyl)pyrrolidine-3-carboxylic acid], for which the 50% inhibitory concentration (IC50) was at most 10 nM.
